Experimental findings from US11013780B2, “Methods of treating female infertility” (Myovant Sciences GmbH, priority 2016, dated 2021) are described below.

Structures are written as SMILES. Where a SMILES comes first, the peptide text is derived from it. [ ]: non-standard residue; d: D form. Arg(Me) = CNC(=N)NCCC[C@H](N)C(=O)O; Hyp = O=C(O)[C@@H]1C[C@@H](O)CN1; azaGly = NNC(=O)O

The test concerns serum LH, FSH, E2. Briefly: Physiological effects in healthy women, follicular phase (Example 11, Part 1). In kind it is in vivo, human. The text has this: The study population included healthy women, aged 18-35 years, with BMI 18-30 kg/m^2, no medical problems and not taking any medications or hormonal contraception. Three healthy, female subjects were selected and randomized and received a single dose of each of the three study regimens noted below (one regimen per study period). All women were scheduled for three Study D1 Visits (each during the follicular phase of the menstrual cycle). […] The order in which a subject receives one of the three study regimens was determined by a randomization matrix.
The study included a screening visit to collect participants' full medical history and to conduct a general medical examination and blood testing. The three study periods each consisted of three planned study visits per study period (excluding screening and follow-up). Study Day 1 (SD1) Visit of each study period occurred during the follicular phase of the menstrual cycle (days 1-4), and the SD2 and SD3 Visits occurred at 24- and 48-hrs post-dose, respectively (FIG. 14). A follow-up phone call happened 7-10 days post-dose in each study period.
Immediately following dosing, serum LH, FSH, E2 (oestradiol), P (progesterone) and SHBG levels were assessed at 30 minute intervals for up to 14 hours (FIGS. 15A-15C, 16A-16C, 17, 18, 19, 20A, and 20B). These PD variables were also assessed at 24 (Study Day 2) and 48 hours (Study Day 3) post-dose. SHBG changes less rapidly and was measured every 3 hours to reduce blood volume.
Up to 3 mL of blood volume were required for measurement of serum reproductive hormone levels (LH, FSH, E2 and P). Blood samples for serum analysis were collected in plain Vacutainer tubes (Beckton Dickson, Franklin Lakes, N.J., USA), and spun after clotting (˜1 hour at room temperature) for 10 minutes at 3000 rpm. Serum was then stored in a locked freezer at −20° C. until assay of serum reproductive hormone levels.

For `CNC(=N)NCCC[C@H](NC(=O)[C@H](CC(C)C)NC(=O)NNC(=O)[C@H](Cc1ccccc1)NC(=O)[C@@H](NC(=O)[C@H](CC(N)=O)NC(=O)[C@@H]1C[C@@H](O)CN1C(=O)[C@@H](Cc1ccc(O)cc1)NC(C)=O)[C@@H](C)O)C(=O)N[C@@H](Cc1c[nH]c2ccccc12)C(N)=O` [Compound 1, 2-(N-Acetyl-D-tyrosyl-trans-4-hydroxy-L-prolyl-L-asparaginyl-L-threonyl-L-phenylalanyl)-hydrazinocarbonyl-L-leucyl-Nω-methyl-L-arginyl-L-tryptophanamide] (Ac-[dY][Hyp]NTF[azaGly]L[Arg(Me)]W-NH2), the FSH response result was “very low compared to the LH response”. Besides, the “Time of peak serum LH post-dosing” value (0.003 nmol/kg SC) was 14 to 36 h. Further, under “0.03 nmol/kg SC”, the “Duration of LH surge” value is reported as “approximately 14 hours”, the “End of LH surge after administration” value amounted to 28 h and the “Time of peak serum LH after administration” value was in the range of 18 to 20 h.
